The results in this text go back to article PMC5640605, “Fructose-1,6-bisphosphate couples glycolytic flux to activation of Ras” (Nature Communications, 2017).

The experiment has as its target T1, Sos1 (Homo sapiens, UniProt Q07889).
T1 construct: catalytic part of Sos1 (residues 564–1049)
T1 sequence (Q07889 564-1049): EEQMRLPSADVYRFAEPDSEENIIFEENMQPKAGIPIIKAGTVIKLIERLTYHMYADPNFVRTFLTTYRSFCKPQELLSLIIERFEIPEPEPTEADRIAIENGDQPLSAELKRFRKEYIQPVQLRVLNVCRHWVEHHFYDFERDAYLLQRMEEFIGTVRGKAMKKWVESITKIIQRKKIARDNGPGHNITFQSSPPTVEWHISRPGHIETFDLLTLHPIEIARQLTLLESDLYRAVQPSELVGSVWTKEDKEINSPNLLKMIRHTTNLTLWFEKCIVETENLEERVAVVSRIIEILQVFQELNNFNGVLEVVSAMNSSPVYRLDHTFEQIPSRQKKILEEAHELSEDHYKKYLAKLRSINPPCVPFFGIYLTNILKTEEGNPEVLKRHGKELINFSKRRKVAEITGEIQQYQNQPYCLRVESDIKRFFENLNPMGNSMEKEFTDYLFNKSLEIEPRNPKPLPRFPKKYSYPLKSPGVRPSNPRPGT
Nature of the experiment: fluorescence-based thermal shift assay (SYPRO Orange) with Langmuir Kd fit; supported by BLI of Sos1/H-Ras complex dissociation (KDapp […]). It is filed as binding.

Regarding `O=P(O)(O)OC[C@H]1OC(O)(COP(=O)(O)O)[C@@H](O)[C@@H]1O` (stereo partly shown) [Fru1,6bisP], the Kd worked out at 17.5 ± 2.2 mM.
